# Reference: patent publication US6121457A, “Compositions and methods using novel substituted imidazolium lipids” (Megabios Corporation, priority 1998, dated 2000)
# Experiments:
# [1] = tested on: CAT reporter protein in lung and serum; assay: IV delivery in rabbits: CAT ELISA, lung and serum; assay type: in vivo; conditions: Rabbit #4, lipid only, highest vol. IV, about 24 h
# Method: This example provides an evaluation of Compound 1 as a suitable lipid in DNA:lipid complexes for transfection in rabbits.
# (§1) Pilot studies were conducted to assess the suitability of rabbits as a development model for delivery of lipid:DNA complexes. The study confirmed that rabbits offer the ability to express transfected genes as well as display some anticipated toxicity endpoints.
# (§2) A 2 mL blood sample is collected immediately prior to dose delivery for serum collection and another 2 mL for a CBC/clinical chemistry screen. Sufficient blood is also collected at necropsy to perform a CBC and clinical chemistry screen and preserve serum (minimum of 8 mL).
# (§3) Approximately 24 hours after dosing the animals are euthanized using a barbiturate overdose. Following euthanasia, body weights are determined and an examination is made for the presence of pleural fluid. Any fluid present is harvested while avoiding blood contamination. Total protein and albumin levels are determined on the pleural fluid.
# (§4) Tissues are collected and preserved as follows: lung tissue (8 vials in liquid nitrogen, 2 lobes infused with formalin, and optionally 2 Whirlpaks® in dry ice); liver tissue (multiple sites in formalin); kidney tissue (multiple sites in formalin); spleen tissue (multiple sites in formalin); heart tissue (multiple sites in formalin); and multiple serum samples (6 mL minimum in dry ice).
# [2] = IV toleration and necropsy observations in rabbits; assay type: in vivo, rabbit; conditions: just the lipid, about 24 h
# Method: as §1, §2, §3, §4
# CAT protein in lungs = assay: IV gene transfer in mice: lung CAT reporter expression (plasmid p4119) by ELISA; assay type: in vivo, ICR female mice; conditions: for mean CAT expression level (CAT ELISA): formulated with cholesterol and plasmid p4119, IV, five mice each, value followed by +/- spread
# Method: This example provides an evaluation of the cationic lipid prepared in Example 1.
# Two mice studies have been performed for the evaluation of cationic lipids of the present invention, in comparison with DOTIM (see, Liu, et al, Nature Biotechnology 15:167-173 (1997)). In brief, the lipid combinations were tested as carriers for gene transfer by intravenous delivery in ICR female mice (25 g), and expression was determined using the plasmid p4119 containing the CAT reporter gene under the control of the HCMV promoter. The lipids were dissolved in a mixture of chloroform and methanol (1:1). Lipid films of cationic and neutral lipid (either cholesterol or DLPE) at a 1:1 molar ratio were formed with a rotary evaporator. The films were hydrated with 5% dextrose in water (D5W) at room temperature and extruded through a series of membranes having pore sizes of 400 nm, 200 nm, and 50 nm.
# DNA-liposome complexes were prepared at a 1:6 DNA:cationic lipid ratio (mg DNA per μmole cationic lipid) by adding the DNA, in a solution at 0.625 mg/mL concentration in D5W to the solution of liposomes, in an equal volume, with constant stirring, using a Hamilton Dilutor 540B (Hamilton, Reno, Nev.). DOTIM:cholesterol was used at a 1:6 DNA:cationic lipid ratio. The DNA solution was 0.3125 mg/mL DNA in D5W. The resulting complexes were sized using a Submicron Particle Sizer 370 (Nicomp, Santa Barbara, Calif.). Zeta potential was determined by a Zeta Plus, Zeta Potential Analyzer (Brookhaven Instruments Corp.). A total of 5 mice were tested per group. A dose of 62.5 μg p4119 plasmid DNA in 200 μL D5W was injected by tail vein per mouse. The lungs were harvested after 24 hours and assayed for CAT protein by ELISA assay. […] The upper organic phase was then transferred into scintillation vials containing 5 mL of Ready Safe Liquid Scintillation Cocktail (Beckman, Fullerton, Calif.). Samples were counted for 1 min each. […]
SMILES,"CAT ELISA, lung [1] [pg/mg]","CAT ELISA, serum [1] [pg/mL]",airway foam or excessive pleural fluid [2],lesions [2],lung appearance at necropsy [2],"lung CAT expression / in vivo activity, in words (CAT protein in lungs; IV, mice, both protocols)",mean CAT expression level (CAT ELISA) (CAT protein in lungs) [pg/mg]
CCCCCCCC/C=C\CCCCCCCC[N+]1=C(CCCCCCC/C=C\CCCCCCCC)N(CCO)CC1 [Compound 1],0,0,no airway foam or excessive pleural fluid was noted,No lesions were noted,diffusely red lungs which failed to collapse,retained the in vivo activity of DOTIM,306.09
CCCCCCCCCCCCCCCCCC[N+]1=C(CCCCCCCCCCCCCCCCC)N(CCO)CC1 [Formula III (Compound 2)],–,–,–,–,–,–,853.20
